This note sets out measurements from ChEMBL document CHEMBL1201862, “PubChem BioAssay data set” (2004).

Each structure is given as a SMILES string.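 Five concentrations, 48 hours, 96-well plates. GI50: concentration for 50% inhibition of growth.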 Active and inactive are the calls of the source. No stated cut-off is given here; in the data, active = GI50 up to about 1.1 µM and inactive = higher. Bounds are passed on as bounds.

Holding throughout (experiment): NCI tumour cell line growth inhibition, 48 h
Assay [1] relates to HOP-18.
For assay [2], the system named is SNB-19.
Assay [3] concerns KM12.
Assay [4] concerns HCT-15.
Assay [5] deals with SNB-75.
Assay [6] has as its system SF-295.
For assay [7], the system named is SK-MEL-28.
The subject of assay [8] is SK-OV-3.
In assay [9] the test system is CAKI-1.
Assay [10] deals with M14.
For assay [11], the system named is A549.
In assay [12] the test system is OVCAR-4.
Assay [13] has as its system EKVX.
The test system of assay [14] is SN12C.
For assay [15], the system named is TK-10.
For assay [16], the system named is SK-MEL-2.
Assay [17] has as its system NCI-H226.
The test system of assay [18] is MDA-MB-231.
The subject of assay [19] is MDA-N.
The subject of assay [20] is MDA-MB-435.

Turning to `C/C=C/C=C/[C@H]1Cc2cc(O)cc(O)c2O1`, the GI50 is > 100 µM (inactive) in assay [1]; 80.7 µM (inactive) in [2]; 61 µM (inactive) in [3]; 84.9 µM in [4]; > 100 µM (inactive) in assay [5]; 57.3 µM (inactive) in assay [6]. Also, the GI50 in [7] was > 100 µM (inactive); in [8], > 100 µM (inactive); in [9], 58.9 µM (inactive); in assay [10], 37.3 µM (inactive); in [11], 70 µM (inactive); in assay [12] it was 35 µM (inactive). The GI50 in [13] was 55.5 µM (inactive); in assay [14], 55.3 µM (inactive); in assay [15], > 100 µM (inactive); in [16] it was > 100 µM (inactive).
Take `COC(=O)/C(=N\Nc1nc(S)nn1N)C(C#N)c1ccccc1` (configuration not stated): the GI50 in [1] is > 100 µM (inactive); in assay [2], > 100 µM (inactive); in assay [3], > 100 µM (inactive); in assay [4] it was more than 100 µM; in [5], > 100 µM (inactive); in assay [7], > 100 µM (inactive). The GI50 in [17], in [8], in [10], in assay [11], in assay [12] and in [13] was > 100 µM (inactive) throughout. In addition, the GI50 in assay [14], in [15] and in [16] was > 100 µM (inactive) throughout.
`O=C1C/C(=C/c2ccc(/C=C3/CC(=O)N(c4cccc(Br)c4)C3=O)cc2)C(=O)N1c1cccc(Br)c1`: the GI50 is > 100 µM (inactive) in assay [1]; > 100 µM (inactive) in [2]; > 100 µM (inactive) in [3]; more than 100 µM in assay [4]; 23.5 µM (inactive) in assay [5]; 60.7 µM (inactive) in [6]. Moreover, the GI50 in [7], in assay [17], in [8], in assay [9], in assay [10] and in assay [11] was > 100 µM (inactive) each time. Also, the GI50 in [12], in assay [13], in assay [14], in assay [15] and in [16] was > 100 µM (inactive) each time.
As to `O=C(O)c1ccccc1[Se][Se]c1ccccc1C(=O)O`, the GI50 in assay [1] was 23.2 µM (inactive); in [2], 11.2 µM (inactive); in assay [3], 26.8 µM (inactive); in assay [4], 55.1 µM; in assay [5], 29.5 µM (inactive); in assay [6], 28.4 µM (inactive). Moreover, the GI50 is 38.1 µM (inactive) in assay [7]; 1.9 µM (inactive) in [17]; 85.5 µM (inactive) in [8]; 61.8 µM (inactive) in assay [9]; 72.9 µM (inactive) in assay [10]; 51.1 µM (inactive) in assay [11]. Moreover, the values for the GI50 in [14], in assay [15] and in assay [16] were 53 µM (inactive), > 100 µM (inactive) and 44.4 µM (inactive), respectively.
As to `O=c1[nH]c(=O)n(C2CC(O)C(CO)O2)cc1C#Cc1cc(F)cc(F)c1` (configuration not stated), the GI50 in assay [1] is 24.7 µM (inactive); in assay [2], > 100 µM (inactive); in [3], > 100 µM (inactive); in assay [4], more than 100 µM; in assay [5], 48.9 µM (inactive); in [6] it was > 100 µM (inactive). The GI50 in assay [7], in assay [17], in [8], in assay [9], in assay [10] and in [11] was > 100 µM (inactive) throughout. Further, the GI50 in assay [12], in assay [13], in assay [14] and in assay [16] was > 100 µM (inactive) in each case.
Turning to `Cc1cc2c(cc1-c1cc3c(cc1C)C(C(C)C)=C(O)C(=O)/C3=C\NCC1CCCN3CCCCC13)/C(=C/NCC1CCCN3CCCCC13)C(=O)C(O)=C2C(C)C` (configuration not stated), the GI50 was 4.16 µM (inactive) in [18]; 7.98 µM (inactive) in [2]; 5.15 µM (inactive) in [3]; 5.33 µM in assay [4]; 8.15 µM (inactive) in assay [5]; 6.27 µM (inactive) in [6]. The GI50 in assay [7] is 12.1 µM (inactive); in assay [17] it was 11 µM (inactive); in assay [8] it was 4 µM (inactive); in assay [9], 3.81 µM (inactive); in [10], 5.02 µM (inactive); in assay [19], 5.78 µM (inactive). The GI50 in assay [11] was 4.93 µM (inactive); in [12] it was 6.79 µM (inactive); in [20], 7.62 µM (inactive); in [13], 7.98 µM (inactive); in assay [14], 4.82 µM (inactive); in assay [15], 8.36 µM (inactive). Also, in assay [16], the GI50 is 8.02 µM (inactive).
Consider `CC(=O)OCCOCNC(=S)N/N=C(\C)c1ccco1`, for which the GI50 in [1] was > 100 µM (inactive); in [2], > 100 µM (inactive); in assay [3], > 100 µM (inactive); in assay [4], more than 100 µM; in assay [5] it was 61 µM (inactive); in assay [6], > 100 µM (inactive). Also, the GI50 in assay [7] is > 100 µM (inactive); in assay [17], 64.6 µM (inactive); in assay [8], > 100 µM (inactive); in assay [10], > 100 µM (inactive); in assay [11], > 100 µM (inactive); in assay [12], > 100 µM (inactive). Further, the GI50 in [13], in assay [14], in assay [15] and in [16] was > 100 µM (inactive) each time.
Consider `COC(=O)c1nc(C(=O)OC)c2c([nH]c3ccccc32)c1C(=O)OC`, for which the GI50 in assay [1] was < 0.01 µM (active); in [3], > 100 µM (inactive); in [4], 53.5 µM; in assay [5], 41.5 µM (inactive); in [6], 91.4 µM (inactive); in [7], 88.9 µM (inactive). Moreover, the GI50 in assay [17] is 37.7 µM (inactive); in [9] it was > 10 µM (inactive); in assay [10] it was > 100 µM (inactive); in assay [11], > 100 µM (inactive); in assay [12], > 10 µM (inactive); in [14] it was > 100 µM (inactive). Further, the GI50 in assay [15] and in assay [16] was > 100 µM (inactive) in each case.
Consider `[O-][S+]1Cc2ccccc2CS1` (configuration not stated), for which the GI50 in [1] was 33 µM (inactive); in assay [2], > 100 µM (inactive); in [3], 35.1 µM (inactive); in [4] it was 34.9 µM; in assay [5], 20.3 µM (inactive); in assay [6], 31.6 µM (inactive). Also, the GI50 in [7] was 14.9 µM (inactive); in assay [17], 87.1 µM (inactive); in [8], 52.8 µM (inactive); in assay [9] it was 13.9 µM (inactive); in assay [10] it was 15 µM (inactive); in assay [11], 93.8 µM (inactive). Moreover, the GI50 in assay [12] is 16 µM (inactive); in [13] it was 22.9 µM (inactive); in assay [14], 14 µM (inactive); in assay [15], 21.8 µM (inactive).
With `CC(C)CS(=O)(=O)/C(=C(\c1ccc(Br)cc1)S(=O)(=O)CC(C)C)c1ccc(Br)cc1`, the GI50 in assay [1] was > 100 µM (inactive); in assay [2], > 100 µM (inactive); in assay [3], > 100 µM (inactive); in assay [4], more than 100 µM; in assay [5] it was 38.3 µM (inactive); in assay [6], > 100 µM (inactive). For the same molecule, the GI50 in [7], in [17], in [9], in [10], in assay [11] and in assay [12] was > 100 µM (inactive) throughout. Also, the GI50 in assay [13], in [14], in [15] and in [16] was > 100 µM (inactive) each time.
As for `CCCCCC(/C=C/[C@@H]1[C@H]2CC(=O)O[C@H]2C[C@H]1N1CCOCC1)OC1CCCO1` (some centres not stated), the GI50 in [1] is > 100 µM (inactive); in [2] it was > 100 µM (inactive); in assay [3] it was > 100 µM (inactive); in [4] it was more than 100 µM; in [5], > 100 µM (inactive); in assay [6], > 100 µM (inactive). For the same molecule, the GI50 in [7], in assay [17], in [8], in assay [9], in assay [10] and in assay [11] was > 100 µM (inactive) in each case. Also, the GI50 in assay [12], in assay [13], in assay [15] and in assay [16] was > 100 µM (inactive) in each case.
For the molecule `COc1ccc(/C=C2\CCC(CCN(C)C)(C3=CCCC3)C2=O)cc1Br` (configuration not stated), the GI50 is 12.4 µM (inactive) in assay [1]; 9.44 µM (inactive) in assay [2]; 3.73 µM (inactive) in assay [3]; 4.54 µM in assay [4]; 4.49 µM (inactive) in [5]; 3.85 µM (inactive) in assay [6]. The GI50 was 2.76 µM (inactive) in [7]; 16.9 µM (inactive) in assay [17]; 8.81 µM (inactive) in assay [9]; 1.79 µM (inactive) in [10]; 8.32 µM (inactive) in [11]; 3.68 µM (inactive) in assay [12]. Further, the GI50 in assay [13] was 0.0306 µM (active); in [14], 9.95 µM (inactive); in assay [15] it was 6.93 µM (inactive); in [16], 10 µM (inactive).
